pEC50: −log10 of the molar value. Active and inactive are the calls of the source.
Tests used:
[1] = tested on: HT-1080; experiment: Inhibition of RSL3-induced ferroptosis in human HT-1080 cells assessed as cell viability upto 10 uM incubated for 24 hrs by CCK8 assay; assay type: functional, cell-based
[2] = tested on: Mus musculus; experiment: Protection against APAP-induced acute liver injury in overnight fasted C57BL/6 mouse model assessed as decrease in plasma AST level at 10 mg/kg, ip administered 1 hr prior to APAP treatment measured after 12 hrs post-APAP treatment under continuous fasting condition; assay type: functional, organism-based; conditions: time 13.0 hrs
[3] = tested on: Mus musculus; experiment: Protection against APAP-induced acute liver injury in overnight fasted C57BL/6 mouse model assessed as decrease in plasma ALT level at 10 mg/kg, ip administered 1 hr prior to APAP treatment measured after 12 hrs post-APAP treatment under continuous fasting condition; assay type: functional, organism-based; conditions: time 13.0 hrs
[4] = tested on: Mus musculus; experiment: Protection against APAP-induced acute liver injury in overnight fasted C57BL/6 mouse model assessed as reduction in 4-HNE formation in liver at 10 mg/kg, ip administered 1 hr prior to APAP treatment measured after 12 hrs post-APAP treatment under continuous fasting condition by IHC analysis; assay type: functional, organism-based; conditions: time 13.0 hrs
[5] = tested on: HT-1080; experiment: Inhibition of RSL3-induced ferroptosis in human HT-1080 cells assessed as cell viability incubated for 24 hrs by CCK8 assay; assay type: functional, cell-based; conditions: HT-1080, 24 h
[6] = Antioxidant activity assessed as DPPH radical scavenging activity at 10 uM incubated for 30 mins by absorbance based assay; assay type: functional
[7] = tested on: HT-1080; experiment: Inhibition of RSL3-induced ferroptosis in human HT-1080 cells assessed as cell viability at 0.5 uM incubated for 24 hrs by CCK8 assay; assay type: functional, cell-based
[8] = tested on: HT-1080; experiment: Inhibition of RSL3-induced ferroptosis in human HT-1080 cells assessed as cell viability at 200 nM incubated for 24 hrs by CCK8 assay; assay type: functional, cell-based
[9] = tested on: HKC; experiment: Inhibition of RSL3-induced ferroptosis in human HKC cells assessed as cell viability at 200 nM incubated for 24 hrs by CCK8 assay; assay type: functional, cell-based
[10] = tested on: HK-2; experiment: Inhibition of RSL3-induced ferroptosis in human HK-2 cells assessed as cell viability at 200 nM incubated for 24 hrs by CCK8 assay; assay type: functional, cell-based
[11] = tested on: KHOS/NP; experiment: Inhibition of RSL3-induced ferroptosis in human KHOS/NP cells assessed as cell viability at 200 nM incubated for 24 hrs by CCK8 assay; assay type: functional, cell-based
[12] = tested on: SW480; experiment: Inhibition of RSL3-induced ferroptosis in human SW480 cells assessed as cell viability at 200 nM incubated for 24 hrs by CCK8 assay; assay type: functional, cell-based
[13] = tested on: HTR-8/SVneo; experiment: Inhibition of RSL3-induced ferroptosis in human HTR-8/SVneo cells assessed as cell viability at 200 nM incubated for 24 hrs by CCK8 assay; assay type: functional, cell-based
[14] = tested on: HT-1080; experiment: Inhibition of FIN56-induced ferroptosis in human HT-1080 cells assessed as cell viability at 200 nM incubated for 24 hrs by CCK8 assay; assay type: functional, cell-based
[15] = tested on: HKC; experiment: Inhibition of FIN56-induced ferroptosis in human HKC cells assessed as cell viability at 200 nM incubated for 24 hrs by CCK8 assay; assay type: functional, cell-based
[16] = tested on: HK-2; experiment: Inhibition of FIN56-induced ferroptosis in human HK-2 cells assessed as cell viability at 200 nM incubated for 24 hrs by CCK8 assay; assay type: functional, cell-based
[17] = tested on: KHOS/NP; experiment: Inhibition of FIN56-induced ferroptosis in human KHOS/NP cells assessed as cell viability at 200 nM incubated for 24 hrs by CCK8 assay; assay type: functional, cell-based
[18] = tested on: SW480; experiment: Inhibition of FIN56-induced ferroptosis in human SW480 cells assessed as cell viability at 200 nM incubated for 24 hrs by CCK8 assay; assay type: functional, cell-based
[19] = tested on: HTR-8/SVneo; experiment: Inhibition of FIN56-induced ferroptosis in human HTR-8/SVneo cells assessed as cell viability at 200 nM incubated for 24 hrs by CCK8 assay; assay type: functional, cell-based
[20] = tested on: HT-1080; experiment: Inhibition of ferroptosis in human HT-1080 cells assessed as reversal of RSL3-induced cell shrinkage; assay type: functional, cell-based
[21] = tested on: HT-1080; experiment: Inhibition of ferroptosis in human HT-1080 cells assessed as reversal of RSL3-induced swelling; assay type: functional, cell-based
[22] = tested on: HT-1080; experiment: Inhibition of ferroptosis in human HT-1080 cells assessed as reversal of RSL3-induced membrane rupture; assay type: functional, cell-based
[23] = tested on: HT-1080; experiment: Inhibition of ferroptosis in human HT-1080 cells assessed as reversal of RSL3-induced normal morphological loss; assay type: functional, cell-based
[24] = tested on: HT-1080; experiment: Inhibition of RSL3-induced lipid peroxidation in human HT-1080 cells assessed as reduction in green fluorescence by C11-BODIPY581/591 probe based analysis; assay type: functional, cell-based
[25] = tested on: HT-1080; experiment: Inhibition of RSL3-induced lipid peroxidation in human HT-1080 cells assessed as reduction in MDA adduct accumulation by ELISA; assay type: functional, cell-based
[26] = tested on: HT-1080; experiment: Effect on lipid metabolism in human HT-1080 cells assessed as change in ACSL4 mRNA level by qRT-PCR analysis; assay type: functional, cell-based
[27] = tested on: HT-1080; experiment: Effect on lipid metabolism in human HT-1080 cells assessed as change in ALOX15 mRNA level by qRT-PCR analysis; assay type: functional, cell-based
[28] = tested on: HT-1080; experiment: Effect on lipid metabolism in human HT-1080 cells assessed as change in COX2 mRNA level by qRT-PCR analysis; assay type: functional, cell-based
[29] = tested on: HT-1080; experiment: Effect on glutathione metabolic pathway in human HT-1080 cells assessed as change in GPX4 mRNA level by qRT-PCR analysis; assay type: functional, cell-based
[30] = tested on: HT-1080; experiment: Effect on glutathione metabolic pathway in human HT-1080 cells assessed as change in SLC7A11 mRNA level by qRT-PCR analysis; assay type: functional, cell-based
[31] = tested on: HT-1080; experiment: Effect on iron metabolism in human HT-1080 cells assessed as change in DMT1 mRNA level by qRT-PCR analysis; assay type: functional, cell-based
[32] = tested on: HT-1080; experiment: Effect on iron metabolism in human HT-1080 cells assessed as change in TFRC mRNA level by qRT-PCR analysis; assay type: functional, cell-based
[33] = tested on: HT-1080; experiment: Effect on iron metabolism in human HT-1080 cells assessed as change in FTH1 mRNA level by qRT-PCR analysis; assay type: functional, cell-based
[34] = Antioxidant activity assessed as DPPH radical scavenging activity at 20 uM incubated for 30 mins by absorbance based assay; assay type: functional
[35] = tested on: Mus musculus; experiment: Protection against kidney ischemia-reperfusion injury in C57BL/6 mouse model assessed as decrease in serum creatinine level at 10 mg/kg, ip administered twice 1 hr prior to ischemia onset measured after 24 hrs post-ischemia; assay type: functional, organism-based; conditions: time 25.0 hrs
[36] = tested on: Mus musculus; experiment: Protection against kidney ischemia-reperfusion injury in C57BL/6 mouse model assessed as decrease in BUN level at 10 mg/kg, ip administered twice 1 hr prior to ischemia onset measured after 24 hrs post-ischemia; assay type: functional, organism-based; conditions: time 25.0 hrs
[37] = tested on: Mus musculus; experiment: Protection against kidney ischemia-reperfusion injury in C57BL/6 mouse model assessed as decrease in renal tubule dilation at 10 mg/kg, ip administered twice 1 hr prior to ischemia onset measured after 24 hrs post-ischemia by H and E staining based analysis; assay type: functional, organism-based; conditions: time 25.0 hrs
[38] = tested on: Mus musculus; experiment: Protection against kidney ischemia-reperfusion injury in C57BL/6 mouse model assessed as decrease in brush edges loss in kidney at 10 mg/kg, ip administered twice 1 hr prior to ischemia onset measured after 24 hrs post-ischemia by H and E staining based analysis; assay type: functional, organism-based; conditions: time 25.0 hrs
[39] = tested on: Mus musculus; experiment: Protection against kidney ischemia-reperfusion injury in C57BL/6 mouse model assessed as decrease in cytoplasmic vacuoles in kidney at 10 mg/kg, ip administered twice 1 hr prior to ischemia onset measured after 24 hrs post-ischemia by H and E staining based analysis; assay type: functional, organism-based; conditions: time 25.0 hrs
[40] = tested on: Mus musculus; experiment: Protection against kidney ischemia-reperfusion injury in C57BL/6 mouse model assessed as decrease in KIM-1 level in kidney at 10 mg/kg, ip administered twice 1 hr prior to ischemia onset measured after 24 hrs post-ischemia by IHC analysis; assay type: functional, organism-based; conditions: time 25.0 hrs
[41] = tested on: Mus musculus; experiment: (§1) Protection against APAP-induced acute liver injury in overnight fasted C57BL/6 mouse model assessed as normal pathology of liver at 10 mg/kg, ip administered 1 hr prior to APAP treatment measured after 12 hrs post-APAP treatment under continuous fasting condition by H and E staining based analysis; assay type: functional, organism-based; conditions: time 13.0 hrs
[42] = tested on: Mus musculus; experiment: Protection against APAP-induced acute liver injury in overnight fasted C57BL/6 mouse model assessed as reversal of native liver architecture at 10 mg/kg, ip administered 1 hr prior to APAP treatment measured after 12 hrs post-APAP treatment under continuous fasting condition by H and E staining based analysis; assay type: functional, organism-based; conditions: time 13.0 hrs
[43] = tested on: Mus musculus; experiment: as §1, with “reduction in necrotic areas” for “normal pathology”; assay type: functional, organism-based; conditions: time 13.0 hrs

Nc1c(O)cccc1C(=O)O
inactive: inhibition [1]

CC(C)COC(=O)c1cccc(O)c1N
6.80: pEC50 [5]
active: Activity [2] | Activity [3] | Activity [4] | Activity [6] | inhibition [7] | inhibition [8] | inhibition [9] | inhibition [10] | inhibition [11] | inhibition [12] | inhibition [13] | inhibition [14] | inhibition [15] | inhibition [16] | inhibition [17] | inhibition [18] | inhibition [19] | inhibition [20] | inhibition [21] | inhibition [22] | inhibition [23] | inhibition [24] | inhibition [25] | Activity [34] | Activity [35] | Activity [36] | Activity [37] | Activity [38] | Activity [39] | Activity [40] | Activity [41] | Activity [42] | Activity [43]
inactive: Activity [26] | Activity [27] | Activity [28] | Activity [29] | Activity [30] | Activity [31] | Activity [32] | Activity [33]

From ChEMBL document CHEMBL5506073, “Discovery of Novel Ortho-Aminophenol Derivatives Targeting Lipid Peroxidation with Potent Antiferroptotic Activities” (J Med Chem, 2024)
